pEC50: −log10 of the molar value.
What was measured:
ΔF508-CFTR [1] = biological target: T1, ΔF508-CFTR (Homo sapiens, UniProt P13569, DEL508-508); experiment: CFTR cell surface levels using HRP-tagged ΔF508-CFTR expressing CFBE cells, in the presence of a co-corrector; assay type: cell-based; conditions: HRP-tagged ΔF508-CFTR CFBE41o- cells, with 3 μM co-corrector; for % Activation: positive control 3 μM co-corrector
T1 construct: host or cells: CFBE41o- cells, doxycycline-inducible expression
Text: (§1) Measuring CFTR Cell Surface Levels Using HRP-Tagged ΔF508-CFTR Expressing CFBE Cells
(§2) The HRP-tagged ΔF508-CFTR cell assay measures the expression of CFTR-ΔF508 at the plasma membrane. CFTR-ΔF508 has a folding defect leading to absence of protein at the plasma membrane. This assay is used to evaluate the capacity of compounds to increase the expression of CFTR-ΔF508 at the plasma membrane. […] When HRP-tagged ΔF508-CFTR is present at the plasma membrane, the HRP enzyme activity can be measured. The amount of CFTR-ΔF508 that can be rescued to the plasma membrane is correlated with the amount of functional enzyme that can be measured.
(§3) There are several ways to measure the capacity of compounds to rescue CFTR-ΔF508 to the plasma membrane; either compounds are evaluated on their own and the impact on plasma membrane levels is measured or compounds are evaluated in combination with a co-corrector, i.e. a compound that rescues CFTR-ΔF508 to the plasma membrane but rescue can be enhanced by addition of compounds due to a complementary mode of action.
Activity of Compounds in Combination with Co-Corrector:
On day four, 10 μL of test compounds diluted in PBS (phosphate buffered saline) were added to the plates at a final DMSO concentration of 0.1%. In order to measure compound synergy with a co-corrector, 3 μM co-corrector (3-[(2R,4R)-4-({[1-(2,2-difluoro-1,3-benzodioxol-5-yl)cyclopropyl]carbonyl}amino)-7-methoxy-3,4-dihydro-2H-chromen-2-yl]benzoic acid) was added along with test compounds. All compound plates contained negative controls (DMSO) and positive controls (3 μM co-corrector). Cell plates were incubated at 33° C., 5% CO2 for 20 hours. […] After incubation for 15 minutes in the dark, the chemiluminescence was measured using a plate reader (EnVision®, Perkin Elmer). Raw data were normalized to percentage activity values using the equation: 100×(Sample−Negative control)/(Positive control−Negative Control).

ΔF508-CFTR [2] = biological target: T1, ΔF508-CFTR; experiment: CFTR cell surface levels using HRP-tagged ΔF508-CFTR expressing CFBE cells, intrinsic corrector capacity; assay type: cell-based; set-up: % Activation: concentration or dose not given beside the values; conditions: HRP-tagged ΔF508-CFTR expressing CFBE41o- cells; compounds alone (intrinsic corrector capacity); 20 hours at 33° C.
Text: as §1, §2, §3
Activity of Compounds for their Intrinsic Corrector Capacity:
On day four, L test compounds diluted in PBS were added to the plates at a final DMSO concentration of 0.1%. All compound plates contained negative controls (DMSO) and positive controls ([…] corrector, 3-[(2R,4R)-4-({[1-(2,2-difluoro-1,3-benzodioxol-5-yl)cyclopropyl]carbonyl}amino)-7-methoxy-3,4-dihydro-2H-chromen-2-yl]benzoic acid). Cell plates were incubated at 33° C., 5% CO2 for 20 hours. […] After incubation for 15 minutes in the dark, chemiluminescence was measured using a plate reader (EnVision®, Perkin Elmer). Raw data were normalized to percentage activity values using the equation: 100×(Sample−Negative control)/(Positive control−Negative Control).

T1 sequence (P13569 with tags, fused parts or gaps DEL508-508): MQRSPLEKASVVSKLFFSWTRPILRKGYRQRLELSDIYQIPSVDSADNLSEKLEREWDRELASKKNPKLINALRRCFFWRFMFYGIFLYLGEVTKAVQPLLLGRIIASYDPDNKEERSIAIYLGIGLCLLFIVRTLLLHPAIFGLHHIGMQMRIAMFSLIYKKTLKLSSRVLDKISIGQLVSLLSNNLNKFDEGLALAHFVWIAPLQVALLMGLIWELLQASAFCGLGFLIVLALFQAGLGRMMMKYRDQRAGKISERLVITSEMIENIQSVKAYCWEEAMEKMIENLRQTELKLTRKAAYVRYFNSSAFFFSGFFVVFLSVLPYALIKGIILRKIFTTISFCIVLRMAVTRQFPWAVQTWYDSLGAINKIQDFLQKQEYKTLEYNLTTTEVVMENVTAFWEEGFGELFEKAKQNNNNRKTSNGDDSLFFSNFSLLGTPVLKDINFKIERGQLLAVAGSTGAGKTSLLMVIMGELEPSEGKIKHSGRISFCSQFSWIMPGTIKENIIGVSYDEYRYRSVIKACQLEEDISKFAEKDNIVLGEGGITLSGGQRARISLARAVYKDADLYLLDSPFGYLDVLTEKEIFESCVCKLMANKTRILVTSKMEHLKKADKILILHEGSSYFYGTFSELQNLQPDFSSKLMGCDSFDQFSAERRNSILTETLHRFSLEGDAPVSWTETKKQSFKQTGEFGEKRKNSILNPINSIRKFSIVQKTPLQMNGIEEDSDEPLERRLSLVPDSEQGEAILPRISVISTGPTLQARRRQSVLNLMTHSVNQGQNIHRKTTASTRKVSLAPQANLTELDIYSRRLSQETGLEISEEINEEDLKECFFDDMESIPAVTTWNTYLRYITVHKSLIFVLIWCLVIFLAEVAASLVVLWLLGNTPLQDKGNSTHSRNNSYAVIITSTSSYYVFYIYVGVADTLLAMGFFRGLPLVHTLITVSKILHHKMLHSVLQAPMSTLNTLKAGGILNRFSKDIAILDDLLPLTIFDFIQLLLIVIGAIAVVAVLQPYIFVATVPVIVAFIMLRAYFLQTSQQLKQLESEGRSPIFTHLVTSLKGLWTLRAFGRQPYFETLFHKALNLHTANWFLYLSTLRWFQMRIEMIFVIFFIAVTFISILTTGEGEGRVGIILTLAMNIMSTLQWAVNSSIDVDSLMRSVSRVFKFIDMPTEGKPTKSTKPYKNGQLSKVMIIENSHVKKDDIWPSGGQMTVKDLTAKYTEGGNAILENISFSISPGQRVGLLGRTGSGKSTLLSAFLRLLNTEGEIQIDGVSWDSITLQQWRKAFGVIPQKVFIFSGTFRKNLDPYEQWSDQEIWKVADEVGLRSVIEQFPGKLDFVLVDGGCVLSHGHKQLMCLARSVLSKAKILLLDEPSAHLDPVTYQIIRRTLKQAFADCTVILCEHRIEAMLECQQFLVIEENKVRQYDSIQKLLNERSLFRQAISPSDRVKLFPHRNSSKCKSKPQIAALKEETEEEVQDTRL

Row | SMILES | pEC50 (ΔF508-CFTR [1]) | pEC50 (ΔF508-CFTR [2]) | also measured
1 | Cc1nn(C2CCCCC2)c2nc(C(=O)NS(C)(=O)=O)cc(-c3ccc(N4CCOCC4)nc3)c12 [compound 47] | 5.79 |  | 
2 | CS(=O)(=O)NC(=O)c1cc(OCCCN2CCCCC2)c2c(C3CCC3)nn(-c3ccccc3)c2n1 [compound 314] | 6.16 |  | 
3 | COCC1CCN(Cc2cc(C(=O)NS(=O)(=O)N(C)C)nc3c2c(C2CCC2)nn3-c2ccc(F)cc2)CC1 [compound 521] |  | 5.00 | 
4 | CC(c1ccc(-c2cc(C(=O)NS(=O)(=O)N(C)C)nc3c2c(C2CCC2)nn3C2CCCCC2)cc1)N1CCOCC1 (stereo not drawn) [compound 543] | 7.41 |  | 
5 | CN(C)S(=O)(=O)NC(=O)c1cc(N2CCC(N3CCC(C#N)C3)CC2)c2c(C3CCC3)nn(-c3ccc(F)cc3)c2n1 (stereo not drawn) [compound 561] | 7.38 |  | 
6 | CC(C)N1CCC(c2cc(C(=O)NS(=O)(=O)N(C)C)nc3c2c(C2CCC2)nn3-c2ccc(F)cc2)CC1 [compound 598] |  | 5.00 | 
7 | CN(C)S(=O)(=O)NC(=O)c1cc(C2CCN(CCC(F)(F)F)CC2)c2c(C3CCC3)nn(-c3ccc(F)cc3)c2n1 [compound 604] |  |  | % Activation (ΔF508-CFTR [1]): 269.3%
8 | CN(C)S(=O)(=O)NC(=O)c1cc(C2CCN(CC3CC3)CC2)c2c(C3CCC3)nn(-c3ccc(F)cc3)c2n1 [compound 613] |  | 5.00 | 
9 | CC(C)Oc1nn(C2CCCCC2)c2nc(C(=O)NS(C)(=O)=O)cc(-c3ccc(C4(C#N)CCN(C)CC4)cc3)c12 [compound 639] | 7.13 | 6.88 | % Activation (ΔF508-CFTR [1]): 464.55%; % Activation (ΔF508-CFTR [2]): 238.35%

Reference: patent publication US20190202823A1, “N-SULFONYLATED PYRAZOLO[3,4-b]PYRIDIN-6-CARBOXAMIDES AND METHOD OF USE” (AbbVie S.à.r.l., priority 2015, published 2019)
